In US9533017B2, “Saccharomyces cerevisiae yeast for preventing and/or treating vaginal mycoses” (LESAFFRE ET COMPAGNIE, priority 2012, dated 2017):
Entries after “also recorded” stand apart in the source; their conditions may differ.

Key:
[1] = system: Candida albicans; assay: Rat model of vaginal candidosis: viable C. albicans in the vaginal mucosa (cervico-uterine smears on Chrom-Agar plates); type: in vivo; conditions: for mean growth of the colonies of C. albicans on Chrom-Agar plates (smears): fluconazole 50 μg intravaginal 1 h, 24 h, 48 h after infection
Experimental: (§1) Ovariectomized female rats (Sprague-Dawley) aged from 3 to 5 weeks are purchased from Janvier Laboratoires, France. They are maintained under pseudo-estrus by a subcutaneous injection of estradiol benzoate (Sigma, estradiol benzoate resuspended in sesame oil; 0.5 mg/animal) every other day (i.e. three times per week) up to the end of the experiment.
(§2) A week after the first injection of estradiol inducing pseudo-estrus, the female rats are infected with C. albicans. Infection with C. albicans corresponds to a single intravaginal administration of the C. albicans strain at a concentration of 10^7 CFU.
(§3) Fluconazole is administered by the intravaginal route at a dose of 50 μg per rat, respectively 1 h, 24 h and 48 h after infection with C. albicans. […]
The number of colonies of C. albicans adhering to the vaginal mucosa is evaluated every two days after infection with Candida albicans and up to the end of the experiment (3 weeks later) by taking a cervico-uterine smear (with a calibrated loop) and by spreading on Chrom-Agar plates (a growth medium specific and selective for Candida), 5 vaginal samples being combined.
The viable colonies of Candida albicans are counted after two days of culture at 30° C. on a selective medium (Chrom-Agar plates, BD).
Another way of expressing the results is to calculate the area under the curve (AUC) between day 2 and day 12, which represents a quantitative marker of the presence of viable C. albicans in the vaginal mucosa of rats receiving or not receiving fluconazole.

[2] = system: Candida albicans; assay: Rat model of vaginal candidosis: viable C. albicans CFUs in vaginal washes; type: in vivo; set-up: AUC values (D 2-13): unit not given beside the values; conditions: for number of C. albicans CFUs determined from the washes: fluconazole 50 μg intravaginal 1 h
Experimental: as §1, §2, §3
The viable colonies of Candida albicans are counted after two days of culture at 30° C. on a selective medium (Chrom-Agar plates, BD). […]
The number of C. albicans (in CFU) is determined from cervico-uterine smears and washes as described above.

[3] = system: Candida albicans; assay: Antigen with mannoside structure of C. albicans in combined vaginal washes (ICT strips); type: in vivo, rat; conditions: combined washes from 5 rats; fluconazole vs untreated infected rats
Excerpt: Detection of an antigen of C. albicans is useful for diagnosing vaginal candidosis. The antigen comprises a highly immunogenic mannoside structure present in the cell wall of C. albicans. The antigen with mannoside structure is the main antigen present in vaginal infection, it therefore constitutes a useful biomarker for diagnosing […] candidosis.
Another possibility for detecting the presence of the antigen with mannoside structure consists of using ICT strips (Candi Vagi, SR2B). “ICT” is based on capture of the antigen contained in the vaginal secretions using a mouse immunoglobulin IgM directed against the antigen with mannoside structure. The monoclonal antibody recognizes the epitopes of the antigen with mannoside structure for a wide range of Candida species. The monoclonal antibody is conjugated to particles or in a mobile phase and is also applied on a nitrocellulose strip as capture antibody. The ICT stick is put in the suspension of vaginal sample and the samples move by capillary action through the block containing the “MAb-gold” conjugate (Mab for monoclonal antibody). The analysis is performed as described in the publication Marot-Leblond et al., Journal of Clinical Microbiology, 2009.
The antigen with mannoside structure is quantified using non-commercial strips in combined washes from 5 rats.

[4] = system: Candida albicans; assay: Cytologic analysis of vaginal washes (MGG staining), inflammation; type: in vivo, rat
Experimental: The smears are prepared from a cervical sample and from washes.
Preparations of cells in a thin layer on slides are prepared from combined washes in each group of rats (washes from 5 rats) using a cytocentrifuge (Cytospin®). The slides are fixed using an aerosol cytologic fixative (Cytoral®).
Conventional May Grunwaid Giemsa staining is carried out for evaluating the level of inflammation in the groups of rats that received C. albicans alone or combined with the treatment with the Sc I-3856 yeast.
Slides are prepared from the combined vaginal washes and MGG staining is carried out in order to evaluate the appearance of the vaginal epithelial cells, the presence of bacteria and yeasts and the presence of proinflammatory cells.
For cytologic investigation of the vaginal washes, slides are prepared from the combined vaginal washes and MGG staining is carried out.
The appearance of the vaginal epithelial cells, the presence of bacteria and yeasts and the presence of proinflammatory cells are evaluated by observation (results not shown).

[5] = system: Candida albicans; assay: Rat model of vaginal candidosis: viable C. albicans in the vaginal mucosa (cervico-uterine smears on Chrom-Agar plates); type: in vivo; set-up: AUC values (D2 to D13): unit not given beside the values; conditions: fluconazole 50 μg 1 h, 24 h, 48 h after infection

For `OC(Cn1cncn1)(Cn1cncn1)c1ccc(F)cc1F` [fluconazole], the “mean growth of the colonies of C. albicans on Chrom-Agar plates (smears)” value (“mean growth” below) ([1]; day 2) was 5.25 CFU, the “mean growth” value ([1]; day 5) was 25 CFU and the “mean growth” value ([1]; day 7) was 42 CFU. For the same compound, the “mean growth” value ([1]; day 10) was 17 CFU, the “infection of the vaginal mucosa with C. albicans on day 12” value ([1]; day 12, fluconazole) was “absence of infection with C. albicans; also recorded: prevent infection with Candida albicans completely” and the “mean growth” value ([1]; day 13) was 7 CFU. The “mean growth” value ([1]; day 15) was 34.45 CFU, the “mean growth” value ([1]; day 17) was 24.4 CFU and the “mean growth” value ([1]; day 20) was 8.8 CFU. For the same compound, the “mean growth” value ([1]; day 23) was 11.8 CFU, the “mean growth” value ([1]; day 25) was 11.6 CFU and the “decrease in the number of viable C. albicans in the vaginal mucosa (AUC) relative to untreated rats” value ([1]; first 12 days after infection, fluconazole treatment) was 36%. The “decrease in elimination of viable C. albicans (AUC of washes) relative to the untreated rats” value ([2]; between days 2 and 12, fluconazole) was 20%, the “number of C. albicans CFUs determined from the washes” value (shortened to “number of C. albicans CFUs determined”) ([2]; day 2, 24 h, 48 h after infection) was 9 CFU and the “number of C. albicans CFUs determined” value ([2]; day 5, 24 h, 48 h after infection) was 53 CFU. For the same compound, the “number of C. albicans CFUs determined” value ([2]; day 7, 24 h, 48 h after infection) was 17 CFU, the “number of C. albicans CFUs determined” value ([2]; day 10, 24 h, 48 h after infection) was 3 CFU and the “number of C. albicans CFUs determined” value ([2]; day 13, 24 h, 48 h after infection) was 1 CFU. The “number of C. albicans CFUs determined” value ([2]; day 15, 24 h, 48 h after infection) was 6 CFU, the “number of C. albicans CFUs determined” value ([2]; day 17, 24 h, 48 h after infection) was 7 CFU and the “number of C. albicans CFUs determined” value ([2]; day 20, 24 h, 48 h after infection) was 3 CFU. For the same compound, the “number of C. albicans CFUs determined” value ([2]; day 23, 24 h, 48 h after infection) was 1 CFU, the “number of C. albicans CFUs determined” value ([2]; day 25, 24 h, 48 h after infection) was 4 CFU and the “percentage of CFUs of C. albicans released/detected in washes in the first phase (D2-D5)” value ([2]; days 2 to 5, fluconazole) was 73%. For the same compound, the “increase of the elimination of viable C. albicans” value ([2]; first week after infection, fluconazole) was 45%, the “peak intensity of release of Candida in washes” value ([2]; fluconazole, first 8 days after infection) was 5 days and the “AUC values (D 2-13)” value ([2]; washes, fluconazole 50 μg 1 h, 24 h, 48 h after infection) was 199. The “quantity of antigens with mannoside structure” value [3] was “less in the rats treated with fluconazole than in the untreated rats”, the “cytology of vaginal washes: inflammatory cells” value ([4]; day 2, fluconazole) was “prevents inflammatory infiltration” and the “cytology of vaginal washes: C. albicans and inflammatory cells” value ([4]; day 12, fluconazole) was “not one C. albicans cell is observed and only a few macrophages and neutrophils are present; also recorded: no C. albicans is observed, but some macrophages and neutrophils are observed”. For the same compound, the “presence of C. albicans on slides of vaginal washes” value ([4]; day D2 (by context), yeast as prophylactic or therapeutic treatment) was “presence of C. albicans is observed”, the “AUC values (D2 to D13)” value [5] was 236.875 and the “Difference (AUC D2 to D13 vs C. albicans untreated)” value [5] was 135.555.
